The values that follow come from US12703836B2, “Mixture of compounds with high molecular weights, obtained from sugar cane wax (Saccharum officinarum L.)” (CENTRO NACIONAL DE INVESTIGACIONES CIENTÍFICAS, priority 2021, dated 2026).

SMILES strings stand for the structures.

Assay [1] has as its system Mongolian gerbils with global brain Ischemia/Reperfusion (I/R). Description: Clinical symptom (neurological function) score after global cerebral ischemia by bilateral carotid occlusion/reperfusion. The following applies: 4 hours after I/R. The assay is classed as in vivo. The text has this:
(§1) For the evaluation of the neuroprotective effect of the mixture of high molecular weight substances, the object of the present invention, an experimental model of global cerebral ischemia by occlusion and reperfusion of the carotid arteries was used. The composition of High Molecular Weight Substances (HMWS) obtained in example 1 was subjected to a preclinical test with animals, in which its pharmacological effect was compared with the effects of pure extracts of Fatty Acids in the form of Salts (AcGS), fatty alcohols (AlcG) and high molecular weight aldehydes (AldG), which were administered in the dose equivalent to the proportion in which each one is present in 200 mg/kg of the HMWS Active Ingredient. Furthermore, the effect of HMWS was compared with the effect of pure free fatty acid (AcGL) extract administered at equal doses. […] Once the quarantine was over, the gerbils were distributed into 8 groups: a negative control that only received vehicle and cerebral ischemia (CI) was not induced and 7 groups with induced CI. […] All treatments were administered orally through intragastric intubation (0.5 mL/70 g body weight) 1 hour prior to induction of ischemia. […] For 6 minutes, the number of times the gerbils crossed the different quadrants with their front legs and the number of times they stopped or leaned was quantified.

Assay [2] deals with rabbits with spinal cord damage induced by Ischemia/Reperfusion (I/R). Description: Mortality in spinal cord ischemia/reperfusion. The class given is in vivo, New Zealand rabbits. As to conditions: oral for 10 days: HMWS 200, AcGS 132, AlcG 40, AldG 28, AcGL 200, ASA 2 mg/kg, positive control 80. On the procedure: The neuroprotective effect of the HMWS mixture, object of the present invention, was also investigated using an experimental model of induction of ischemia in the spinal cord. The composition obtained in example 2 was subjected to a preclinical test in which its pharmacological effect was compared with the effects of pure extracts of Fatty Acids in the form of Salts (AcGS), fatty alcohols (AlcG) and high molecular weight aldehydes (AldG), which were administered at doses equivalent to that of those respective substances in 200 mg/kg of the HMWS Active Ingredient. Furthermore, the effect of HMWS was compared with that of pure extract of free fatty acids (AcGL) administered at equal doses.
Male New Zealand rabbits (1.8-2.2 kg) were used, which were adapted for 15 days to laboratory conditions (temperature of 20 to 25° C., relative humidity of 60±5%, light/dark cycles of 12 hours), with free access to water and food.
The substances HMWS, AcGS, AlcG, AldG, AcGL and aspirin were prepared as suspensions in an acacia/water vehicle (1%). […]
For the induction of ischemia in the spinal cord, the rabbits were anesthetized with thiopental (20 mg/kg i.v.). […] At 4 and 24 hours of reperfusion, the neurological deficit of the animals was blindly evaluated by 2 independent observers (according to Zivin et al., 1982). […]

Assay [3] has as its system Mongolian gerbils with global brain Ischemia/Reperfusion (I/R). The assay can be described thus: Locomotor activity (open field) after global cerebral ischemia/reperfusion. The assay is classed as in vivo. As to conditions: 24 hours post-ischemia, oral HMWS 200, AcGS 132, AlcG 40, AldG 28, AcGL 200, ASA 60 mg/kg.
Description: as §1

Assay [4] relates to rabbits with spinal cord damage induced by Ischemia/Reperfusion (I/R). Description: Neurological deficit score in spinal cord ischemia/reperfusion (abdominal aorta occlusion). The following applies: lower = better. The assay is classed as in vivo, New Zealand rabbits.
Description: The neuroprotective effect of the HMWS mixture, object of the present invention, was also investigated using an experimental model of induction of ischemia in the spinal cord. […] Furthermore, the effect of HMWS was compared with that of pure extract of free fatty acids (AcGL) administered at equal doses.
The substances HMWS, AcGS, AlcG, AldG, AcGL and aspirin were prepared as suspensions in an acacia/water vehicle (1%). Once the quarantine was completed, the rabbits were distributed into 8 groups: a negative control that only received vehicle and was not induced ischemia and 7 groups with spinal cord ischemia: a positive control treated only with the vehicle, and 6 groups were treated with HMWS (200 mg/kg), AcGS (132 mg/kg), AlcG (40 mg/kg), AldG (28 mg/kg), AcGL (200 mg/kg), and aspirin (2 mg/kg) as reference substance. […]

Take `CC(=O)Oc1ccccc1C(=O)O` [ASA, aspirin]: in assay [1] (oral HMWS 200, AcGS 132, AlcG 40, AldG 28, AcGL 200, ASA 60 mg/kg, vs positive control), the “Inhibition (%) of clinical symptom score” value is 86.6%. Besides, the “SC score (clinical symptoms, McGraw scale 0-5)” value in assay [1] (single oral dose 1 hour before ischemia: HMWS (example 1) 200, AcGS 132, AlcG 40, AldG 28, AcGL 200, ASA 60 mg/kg, mean ± SEM, positive control 3.00 ± 0.52) came to 0.40 ± 0.35. Also, the “Mortality 24 h (%)” value in assay [2] is 40+ %. Further, the “Crosses (#), open field locomotor activity” value in assay [3] (6 minutes, mean ± SEM, positive control 355.5 ± 12.4, negative 250.8 ± 14.8) is recorded as 286.2 ± 15.2 #. Moreover, the “Inhibition (%) of hyperlocomotion (crosses)” value in assay [3] was determined as 66.2%. Moreover, the “Score (neurological deficit) 4 h” value in assay [4] (4 h of reperfusion, oral for 10 days: HMWS (example 2) 200, AcGS 132, AlcG 40, AldG 28, AcGL 200, ASA 2 mg/kg, positive control 0.30 ± 0.17, negative 2 ± 0) came out at 0.90 ± 0.25. In assay [4] (24 h of reperfusion, oral for 10 days: HMWS 200, AcGS 132, AlcG 40, AldG 28, AcGL 200, ASA 2 mg/kg, positive control 0.15 ± 0.1, negative 2 ± 0), the “Score (neurological deficit) 24 h” value turned out to be 0.50 ± 0.24.
